The values below come from US12076394B2, “Cytosolic delivery of peptides using protein transduction domain mimics” (University of Massachusetts, priority 2020, dated 2024).

In series [1] the test system is whole blood. Briefly: Inflammatory cytokine panel (cytometric bead array) after co-delivery of SIINFEKL and CpG into whole blood. The settings on record: 24 hours after 60-minute treatment.
Protocol: (§1) A multi-analyte inflammatory cytokine panel was used to understand the immune response when CpG was added to the complexes. GpC, a nonfunctional analogue of CpG, was included as a negative control to preclude the role of nonspecific TLR9 activation during incubation. At 24 hours, following the 60-minute treatment with the non-covalent polymer-[sequence]-CpG complexes, supernatants from whole blood were tested the inflammatory cytokines: IL-1β, IFN-α, IFN-γ, TNF-α, MCP-1, IL-6, IL-8, IL-10, IL-12p70, IL-17A, IL-18, IL-23, and IL-33.
(§2) Whole human blood was obtained from healthy volunteers under signed consent in Roche Vacutainers containing hirudin. In all cases, blood was used within 10 minutes of the tapping from the donor. The blood was distributed into Eppendorf tubes containing preassembled polymer preparations in RPMI 1640 with no supplements and incubated up to 1 hour at 37° C. on rotation (60 RPM). In general, 400 μL of blood was combined with 100 μL of polymer complex prepared in RPMI 1640 for a final volume of 500 μL.
(§3) After one hour of incubation with treatment as reported under cell preparation and culture, cells were pelleted at 400 g for 2 minutes and supernatant was removed. […] Cytokine production was detected using the human inflammation cytometric bead array Legendplex™ from BioLegend® (740118).
Series [2] deals with whole blood.
Protocol: as §1, §2, §3
For series [3], the system named is bone marrow derived dendritic cells. Briefly: Delivery into bone marrow derived dendritic cells, flow cytometry. The format is cell-based, mouse. Particulars: 1 μM antigen, free or with PTDM at 1:10, 4 hours. The protocol: To test SIINFEKL delivery and presentation for T cell activation, bone marrow derived dendritic cells were differentiated from B56 mouse bone marrow for 6 days in the presence of 20 ng/mL mouse GM-CSF. After 6 days, cells were harvested and treated with 1 μM fluorescently labeled SIINFEKL or OVA both free and in complex with PTDM molar ratio of 1:10 for 4 hours.
Immature dendritic cells were differentiated from murine bone marrow according to established protocols. (Dewitte, et al. J. Control. Release 2014, 195, 138-146.) RBCs were lysed using BioLegend® lysis buffer and cells were plated at a density of 2×10^5 cells/mL in complete RPMI (listed under cell lines) with the addition of 20 ng/mL recombinant mouse GM-CSF. Cells were cultured for 6 days with the addition of 10 mL fresh media and cytokines on day 3. Non-adherent and loosely adherent cells were harvested on day 6 and cells were pelleted, counted, and plated at a density of 2×10^6 cells/mL.
THP-1 monocytes, immature dendritic cells, and bone marrow derived dendritic cells were analyzed using a BD LSR Fortessa 20X flow cytometer with five lasers and 18 channels. […] Only cells negative for 7-AAD were assessed for either uptake or presentation of markers. Multi-color flow cytometric analysis spectral overlap was corrected by appropriate compensation and analyzed using FlowJo 10.2 (v3.05470) by Tree Star, Ashland, OR, USA.
(In general: A flow cytometer gives signals particle by particle.)

The subject of series [4] is whole blood. Briefly: Delivery of FAM labeled SIINFEKL into whole blood (time and concentration survey), flow cytometry. The format is cell-based, human. The settings on record: molar ratio 1:10; 15, 30, 45 or 60 minutes; free peptide 60 minutes. How it is done:
The specificity of the polymer-antigen complex uptake by monocytes was tested in whole blood. FAM (Fluorescein Amidites) labeled SIIFNEKL was delivered into whole blood using Me-Ph10-b-dG5 at a molar ratio of 1:10, for 15, 30, 45, or 60 minutes to investigate the kinetics of uptake. MFI and uptake in monocytes were not statistically different regardless of the incubation time. Additionally, complex uptake was compared with free SIINFEKL-FAM allowed to incubate with whole blood for 60 minutes.
FAM labeled SIINFEKL was delivered into whole blood using Me-Ph10-b-dG5 at a molar ratio of 1:10 at increasing peptide concentrations (0.25, 0.5, 1, and 2 μM).
After incubation, cells were pelleted at 200 g for 5 minutes and the supernatant was removed. Red blood cells were lysed in using BD Pharm lysis buffer and subsequently washed with 1% FBS in PBS twice before staining with antibodies. Unspecific binding was blocked for 10 minutes using human or mouse IgG respectively. Antibody surface staining was performed using Human CD14-APC, CD4O-PE, CD80-AF488, CD86-BV711, CD209-APC, HLA-DR-APC-Cy7, or mouse CD11c-AF488, CD86-AF647, HLA-DR, H-2K^b-PE as indicated by manufacturer (BD® or BioLegend®). […]

Like-named read-outs stand apart in the source and are kept apart here. Where no end group is shown, it is not given here. FAM = Fluorescein Amidites label

As to `CC[C@H](C)[C@H](NC(=O)[C@@H](NC(=O)[C@@H](N)CO)[C@@H](C)CC)C(=O)N[C@@H](CC(N)=O)C(=O)N[C@@H](Cc1ccccc1)C(=O)N[C@@H](CCC(=O)O)C(=O)N[C@@H](CCCCN)C(=O)N[C@@H](CC(C)C)C(=O)O` [SIINFEKL], the “inflammatory cytokine response, in words” value in series [1] is “no increase in inflammatory response”.

As to Me-Ph10-b-dG5 [PTDM], in series [2], the “inflammatory cytokine response, in words” value is “did not induce the production of inflammatory cytokines”.

For “OVA: ovalbumin protein, fluorescently labeled, free antigen”, the “uptake of fluorescently labeled SIINFEKL or OVA” value in series [3] is “significantly less uptake”.

Regarding “SIINFEKL-FAM: FAM (Fluorescein Amidites) labeled SIINFEKL, free peptide (SIINFEKL-{FAM})”, the “uptake of FAM labeled SIINFEKL by leukocytes, time survey” value in series [4] is given as “not readily taken up”.
